# Assays:
# [1] = biological target: T1, Ephrin type-A receptor 3 (Homo sapiens) (UniProt P29320); assay: Selectivity interaction (KinomeScan (DiscoverX)) EUB0000666a EPHA3; conditions: at 10 µM
# T1 sequence (whole entry): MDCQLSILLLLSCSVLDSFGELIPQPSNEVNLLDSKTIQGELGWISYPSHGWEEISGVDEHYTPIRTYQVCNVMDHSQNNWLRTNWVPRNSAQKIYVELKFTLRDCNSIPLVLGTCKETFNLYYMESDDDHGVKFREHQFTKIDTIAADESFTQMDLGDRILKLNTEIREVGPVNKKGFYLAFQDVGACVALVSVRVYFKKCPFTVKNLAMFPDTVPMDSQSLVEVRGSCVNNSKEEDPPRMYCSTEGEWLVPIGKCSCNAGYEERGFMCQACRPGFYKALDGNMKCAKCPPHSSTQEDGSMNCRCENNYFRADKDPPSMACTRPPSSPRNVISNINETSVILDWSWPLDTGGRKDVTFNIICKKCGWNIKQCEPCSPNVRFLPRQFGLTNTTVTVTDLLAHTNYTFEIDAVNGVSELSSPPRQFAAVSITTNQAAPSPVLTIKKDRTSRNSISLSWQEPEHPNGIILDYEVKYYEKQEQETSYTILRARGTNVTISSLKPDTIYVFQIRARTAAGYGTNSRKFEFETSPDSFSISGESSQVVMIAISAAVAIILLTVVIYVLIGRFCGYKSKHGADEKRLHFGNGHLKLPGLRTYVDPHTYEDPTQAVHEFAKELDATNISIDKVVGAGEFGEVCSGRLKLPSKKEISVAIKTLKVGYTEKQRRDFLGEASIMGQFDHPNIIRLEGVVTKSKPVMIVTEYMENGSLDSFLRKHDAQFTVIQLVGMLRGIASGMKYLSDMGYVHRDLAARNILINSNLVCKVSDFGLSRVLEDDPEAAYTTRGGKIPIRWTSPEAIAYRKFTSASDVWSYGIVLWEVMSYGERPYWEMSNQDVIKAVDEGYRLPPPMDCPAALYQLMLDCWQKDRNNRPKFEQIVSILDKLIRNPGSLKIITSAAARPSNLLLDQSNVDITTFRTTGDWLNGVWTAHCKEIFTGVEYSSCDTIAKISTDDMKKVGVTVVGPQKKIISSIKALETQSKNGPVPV
# [2] = biological target: Mitogen-activated protein kinase 10 (Homo sapiens, UniProt P53779); assay: Selectivity interaction (KinomeScan (DiscoverX)) EUB0000607a MAPK10; conditions: at 10 µM
# Mitogen-activated protein kinase 10, sequence (P53779 whole entry): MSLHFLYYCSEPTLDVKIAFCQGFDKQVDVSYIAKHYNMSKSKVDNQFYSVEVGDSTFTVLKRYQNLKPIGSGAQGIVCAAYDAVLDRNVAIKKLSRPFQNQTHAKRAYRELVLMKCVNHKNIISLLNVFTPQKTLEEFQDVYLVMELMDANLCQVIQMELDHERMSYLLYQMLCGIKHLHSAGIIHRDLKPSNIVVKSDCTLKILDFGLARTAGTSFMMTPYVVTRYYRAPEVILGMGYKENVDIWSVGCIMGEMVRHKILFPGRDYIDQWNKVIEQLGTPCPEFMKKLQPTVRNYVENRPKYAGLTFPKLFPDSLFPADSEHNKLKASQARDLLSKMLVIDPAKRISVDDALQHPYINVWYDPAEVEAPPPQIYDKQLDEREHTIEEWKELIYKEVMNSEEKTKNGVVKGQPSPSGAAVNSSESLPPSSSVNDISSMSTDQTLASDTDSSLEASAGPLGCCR
# [3] = biological target: Calcium/calmodulin-dependent protein kinase type 1 (Homo sapiens) (UniProt Q14012); assay: Selectivity interaction (KinomeScan (DiscoverX)) EUB0000595a CAMK1; conditions: at 10 µM
# Calcium/calmodulin-dependent protein kinase type 1 (Homo sapiens), sequence (Q14012 whole entry, looked up): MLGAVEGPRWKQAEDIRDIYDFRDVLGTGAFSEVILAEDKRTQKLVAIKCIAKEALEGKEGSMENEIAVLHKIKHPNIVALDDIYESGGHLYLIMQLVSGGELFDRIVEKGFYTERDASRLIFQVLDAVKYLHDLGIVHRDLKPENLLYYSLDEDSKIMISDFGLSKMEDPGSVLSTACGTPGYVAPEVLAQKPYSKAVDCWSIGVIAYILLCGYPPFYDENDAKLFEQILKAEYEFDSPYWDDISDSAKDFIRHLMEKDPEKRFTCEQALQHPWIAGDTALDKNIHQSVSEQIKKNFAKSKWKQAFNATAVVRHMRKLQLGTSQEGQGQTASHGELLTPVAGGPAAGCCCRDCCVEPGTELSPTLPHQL
# [4] = biological target: Mitogen-activated protein kinase 11 (Homo sapiens) (UniProt Q15759); assay: Selectivity interaction (Millipore kinase profiler) EUB0000124b MAPK11; conditions: at 10 µM
# Mitogen-activated protein kinase 11 (Homo sapiens), sequence (Q15759 whole entry, canonical isoform): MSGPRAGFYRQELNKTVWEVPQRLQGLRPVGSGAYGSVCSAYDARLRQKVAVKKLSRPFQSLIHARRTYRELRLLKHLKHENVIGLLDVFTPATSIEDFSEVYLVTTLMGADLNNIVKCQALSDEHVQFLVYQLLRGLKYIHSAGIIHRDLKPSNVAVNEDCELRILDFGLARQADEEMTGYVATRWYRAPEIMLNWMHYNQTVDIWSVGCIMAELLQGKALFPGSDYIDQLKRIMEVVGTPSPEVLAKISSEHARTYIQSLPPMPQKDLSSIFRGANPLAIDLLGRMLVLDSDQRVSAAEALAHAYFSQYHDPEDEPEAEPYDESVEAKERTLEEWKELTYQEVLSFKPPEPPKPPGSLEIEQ
# [5] = biological target: Phosphatidylinositol 4,5-bisphosphate 3-kinase catalytic subunit beta isoform (Homo sapiens) (UniProt P42338); assay: Selectivity interaction (KinomeScan (DiscoverX)) EUB0000092b PIK3CB; conditions: at 10 µM
# Phosphatidylinositol 4,5-bisphosphate 3-kinase catalytic subunit beta isoform (Homo sapiens), sequence (P42338 whole entry, looked up, canonical isoform): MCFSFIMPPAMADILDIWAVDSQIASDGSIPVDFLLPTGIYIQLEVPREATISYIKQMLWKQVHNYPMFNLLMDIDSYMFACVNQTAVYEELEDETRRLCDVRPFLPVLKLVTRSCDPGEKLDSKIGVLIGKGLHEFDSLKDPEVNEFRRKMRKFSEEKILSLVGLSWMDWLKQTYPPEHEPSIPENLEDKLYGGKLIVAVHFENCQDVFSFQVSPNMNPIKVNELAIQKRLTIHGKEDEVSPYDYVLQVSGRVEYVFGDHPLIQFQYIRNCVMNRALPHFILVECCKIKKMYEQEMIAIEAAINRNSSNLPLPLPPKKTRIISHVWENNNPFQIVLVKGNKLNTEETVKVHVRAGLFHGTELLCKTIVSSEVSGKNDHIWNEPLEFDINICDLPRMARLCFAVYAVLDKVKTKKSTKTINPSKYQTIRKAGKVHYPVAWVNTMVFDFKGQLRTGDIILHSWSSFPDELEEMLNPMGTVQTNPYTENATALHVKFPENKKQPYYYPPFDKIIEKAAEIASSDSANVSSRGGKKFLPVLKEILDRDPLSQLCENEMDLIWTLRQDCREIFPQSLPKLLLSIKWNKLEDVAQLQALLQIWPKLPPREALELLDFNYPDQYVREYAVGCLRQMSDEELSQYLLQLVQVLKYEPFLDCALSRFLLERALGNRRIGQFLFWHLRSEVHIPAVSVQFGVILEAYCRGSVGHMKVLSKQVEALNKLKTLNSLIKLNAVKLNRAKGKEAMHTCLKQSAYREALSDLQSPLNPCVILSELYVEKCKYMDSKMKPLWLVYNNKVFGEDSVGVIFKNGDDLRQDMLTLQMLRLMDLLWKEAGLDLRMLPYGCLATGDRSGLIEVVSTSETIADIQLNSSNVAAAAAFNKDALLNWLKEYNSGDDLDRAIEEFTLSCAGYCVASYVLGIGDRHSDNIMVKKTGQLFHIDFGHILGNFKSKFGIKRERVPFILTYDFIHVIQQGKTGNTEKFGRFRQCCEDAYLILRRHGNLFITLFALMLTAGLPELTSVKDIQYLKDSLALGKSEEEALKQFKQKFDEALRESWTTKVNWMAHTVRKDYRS
# [6] = biological target: T2, Peripheral plasma membrane protein CASK (Homo sapiens) (UniProt O14936); assay: Selectivity interaction (KinomeScan (DiscoverX)) EUB0001619a CASK; conditions: at 1 µM
# T2 sequence (whole entry): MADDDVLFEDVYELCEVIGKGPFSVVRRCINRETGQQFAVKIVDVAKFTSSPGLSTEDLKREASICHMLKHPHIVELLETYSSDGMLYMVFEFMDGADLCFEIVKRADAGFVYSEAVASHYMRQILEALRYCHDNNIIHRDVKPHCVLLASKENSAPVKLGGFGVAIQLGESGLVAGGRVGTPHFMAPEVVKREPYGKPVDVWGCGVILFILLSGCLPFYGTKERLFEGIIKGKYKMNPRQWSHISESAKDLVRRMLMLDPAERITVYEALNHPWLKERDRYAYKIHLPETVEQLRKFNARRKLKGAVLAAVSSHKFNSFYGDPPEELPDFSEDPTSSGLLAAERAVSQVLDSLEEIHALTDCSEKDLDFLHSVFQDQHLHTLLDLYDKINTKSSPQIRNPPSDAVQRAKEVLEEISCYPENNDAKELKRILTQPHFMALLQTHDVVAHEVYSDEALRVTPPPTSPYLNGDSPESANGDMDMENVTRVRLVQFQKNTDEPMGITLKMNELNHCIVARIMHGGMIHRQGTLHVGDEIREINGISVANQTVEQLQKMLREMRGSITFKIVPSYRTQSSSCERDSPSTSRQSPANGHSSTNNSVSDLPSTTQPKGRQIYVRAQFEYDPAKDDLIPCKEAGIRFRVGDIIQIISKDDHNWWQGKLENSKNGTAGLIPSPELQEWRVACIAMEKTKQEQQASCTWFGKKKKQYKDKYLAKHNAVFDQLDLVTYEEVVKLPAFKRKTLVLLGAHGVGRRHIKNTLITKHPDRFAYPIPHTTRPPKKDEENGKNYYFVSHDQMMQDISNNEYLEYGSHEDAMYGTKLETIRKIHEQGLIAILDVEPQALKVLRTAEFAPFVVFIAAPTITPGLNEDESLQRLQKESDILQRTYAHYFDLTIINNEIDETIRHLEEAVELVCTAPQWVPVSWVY
# [7] = biological target: Ribosomal protein S6 kinase alpha-2 (Homo sapiens) (UniProt Q15349); assay: Selectivity interaction (KinomeScan (DiscoverX)) EUB0001619a RPS6KA2; conditions: at 1 µM
# Ribosomal protein S6 kinase alpha-2 (Homo sapiens), sequence (Q15349 whole entry): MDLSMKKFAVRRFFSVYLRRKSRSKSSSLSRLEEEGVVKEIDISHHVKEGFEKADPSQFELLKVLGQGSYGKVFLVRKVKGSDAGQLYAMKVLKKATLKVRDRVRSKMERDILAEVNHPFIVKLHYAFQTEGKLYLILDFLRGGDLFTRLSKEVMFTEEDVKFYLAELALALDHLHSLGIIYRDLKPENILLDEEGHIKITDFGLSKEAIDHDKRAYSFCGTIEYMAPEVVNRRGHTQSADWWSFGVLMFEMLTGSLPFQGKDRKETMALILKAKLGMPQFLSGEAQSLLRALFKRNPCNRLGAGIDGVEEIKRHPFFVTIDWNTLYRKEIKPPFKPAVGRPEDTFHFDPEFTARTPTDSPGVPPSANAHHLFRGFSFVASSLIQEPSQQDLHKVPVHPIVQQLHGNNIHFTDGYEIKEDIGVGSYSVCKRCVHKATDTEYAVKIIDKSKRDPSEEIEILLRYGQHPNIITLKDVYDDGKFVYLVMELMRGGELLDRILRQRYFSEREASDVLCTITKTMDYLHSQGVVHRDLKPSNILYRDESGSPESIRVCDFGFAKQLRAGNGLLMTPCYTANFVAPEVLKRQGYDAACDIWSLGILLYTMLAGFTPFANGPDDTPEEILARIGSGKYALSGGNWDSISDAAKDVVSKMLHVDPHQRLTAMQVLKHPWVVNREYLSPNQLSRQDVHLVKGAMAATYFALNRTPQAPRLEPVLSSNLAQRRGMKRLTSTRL
smiles,measurement,setting,value
O=C(NOC[C@H](O)CO)c1ccc(F)c(F)c1Nc1ccc(I)cc1F,% of control,[1],100%
CNC(=O)Nc1ccc(-c2nc(N3CC4CCC(C3)O4)c3cnn(C4CCC5(CC4)OCCO5)c3n2)cc1,% of control,[2],86%
COCC(=O)NC/C=C/c1ccc2ncnc(Nc3ccc(Oc4ccc(C)nc4)c(C)c3)c2c1 [CP-724714],% of control,[3],72%
CC(=O)Nc1cccc(-n2c(=O)n(C3CC3)c(=O)c3c(Nc4ccc(I)cc4F)n(C)c(=O)c(C)c32)c1,% of control,[4],104%
CCC(=O)N1CCN(c2ccc(-n3c(=O)ccc4cnc5ccc(-c6cnc7ccccc7c6)cc5c43)cc2C(F)(F)F)CC1,% of control,[5],65%
N#Cc1cccc(-c2c[nH]c3ncnc(N4CCOCC4)c23)c1,% of control,[6],66%
same,% of control,[7],100%

# Reference: ChEMBL document CHEMBL5465560, “Selectivity Literature for EUbOPEN Chemogenomic Library” (2024)
